The results in this text go back to US8846694B2, “Pyrrolidone derivatives for use as MetAP-2 inhibitors” (Merck Patent GmbH, priority 2008, dated 2014).

Each structure is given as a SMILES string. Where a name gives a salt, the structure may show the parent alone.

In the test the target is MetAP-2 (Homo sapiens, UniProt P50579). Description: MetAP-2 activity measurement (coupled enzymatic reactions, substrate Met-Arg-Ser, photometric at 450 nm). It is filed as biochemical. The following applies: read-out: IC50 enzyme (Inhibition of MetAP-2). The procedure: MetAP-2 Activity Measurement
MetAP-2, sequence (P50579 whole entry, species assumed): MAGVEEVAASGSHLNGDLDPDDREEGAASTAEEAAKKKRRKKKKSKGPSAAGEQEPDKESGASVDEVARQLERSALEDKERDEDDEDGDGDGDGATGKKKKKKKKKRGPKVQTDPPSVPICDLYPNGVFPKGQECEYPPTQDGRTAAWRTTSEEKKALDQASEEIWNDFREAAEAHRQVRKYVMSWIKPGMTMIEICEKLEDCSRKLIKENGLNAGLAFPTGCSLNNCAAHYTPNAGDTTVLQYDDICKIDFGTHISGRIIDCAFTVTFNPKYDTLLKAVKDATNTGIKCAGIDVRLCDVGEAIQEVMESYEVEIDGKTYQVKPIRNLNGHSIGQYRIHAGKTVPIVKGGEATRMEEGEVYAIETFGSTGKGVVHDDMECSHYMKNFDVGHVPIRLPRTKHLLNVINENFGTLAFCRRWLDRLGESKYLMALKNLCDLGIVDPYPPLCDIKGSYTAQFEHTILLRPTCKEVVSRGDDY
The MetAP-2 activity is determined by coupling enzymatic reactions. The tripeptide Met-Arg-Ser (MAS) is employed as substrate. The methionine liberated is firstly converted into Metox and H2O2 by L-aminooxidase (AAO). In the second step, the peroxidase (POD) with the aid of the H2O2 catalyses the oxidation of the leukodye dianisidine to dianisidineox, the increase of which is detected photometrically at 450 nm.
MetAP-2 activity can be recorded continuously as kinetics. The reaction scheme illustrates that one mol of dianisidineox is formed per mol of methionene. The MetAP-2 enzyme activity can therefore be calculated directly as Δ absorption per time unit. […] of the MetAP-2 activity (mol of Met/time unit) is possible with the aid of the dianisidineox extinction coefficient.
The change in extinction per time unit is depicted graphically and a slope calculation is carried out in the visually linear region of the reaction.
What is called IC50 is the concentration that gives 50% inhibition. For the compound `O=C(NCCN1CCOCC1)c1cc(OC[C@H]2CCCN2c2ncnc3[nH]cnc23)c2ccccc2n1` [A149, N-(2-Morpholin-4-ylethyl)-4-[(R)-1-(9H-purin-6-yl)pyrrolidin-2-ylmethoxy]quinoline-2-carboxamide], the IC50 is above 10000 nM.

On to `FC(F)(F)c1cc(OC[C@H]2CCCN2c2ncnc3[nH]cnc23)c2cc(Cl)ccc2n1` [A105, 6-Chloro-4-[(R)-1-(9H-purin-6-yl)pyrrolidin-2-yl-methoxy]-2-trifluoromethylquinoline], for which the IC50 is 10 to 1000 nM. Under `O=C1CCc2cccc(OC[C@H]3CCCN3c3ncnc4[nH]cnc34)c2C1` [A121, 8-[(R)-1-(9H-Purin-6-yl)pyrrolidin-2-ylmethoxy]-3,4-dihydro-1H-naphthalen-2-one] stands 1000 to 10000 nM; under `Cc1ccc2nc(C(F)(F)F)cc(OC[C@H]3CCCN3c3ncnc4[nH]cnc34)c2c1` [A117, 6-Methyl-4-[(R)-1-(9H-purin-6-yl)pyrrolidin-2-yl-methoxy]-2-trifluoromethylquinoline], 10 to 1000 nM; under `FC(F)(F)c1ccc2nccc(OC[C@H]3CCCN3c3ncnc4[nH]cnc34)c2c1` [A123, 4-[(R)-1-(9H-Purin-6-yl)pyrrolidin-2-ylmethoxy]-6-trifluoromethylquinoline], 10 to 1000 nM. Under `O=C1c2cccc(OC[C@H]3CCCN3c3ncnc4[nH]cnc34)c2CC[C@H]1Cc1c[nH]cn1` [A97, (S)-2-(1H-Imidazol-4-y!methyl)-5-[(R)-1-(9H-purin-6-yl)pyrrolidin-2-ylmethoxy]-3,4-dihydro-2H-naphthalen-1-one] stands 10 to 1000 nM; under `O=C(NC1CCC1)c1cc(OC[C@H]2CCCN2c2ncnc3[nH]cnc23)c2ccccc2n1` [A80, N-Cyclobutyl-4-[(R)-1-(9H-purin-6-yl)pyrrolidin-2-ylmethoxy]quinoline-2-carboxamide], 10 to 1000 nM. Under `Fc1ccc(CCNCCn2cc(OC[C@H]3CCCN3c3ncnc4[nH]cnc34)c3cc(F)ccc32)cc1` [A203, [2-(4-Fluorophenyl)ethyl]-(2-{5-fluoro-3-[(R)-1-(9H-purin-6-yl)pyrrolidin-2-ylmethoxy]indol-1-yl}-ethyl)amine] stands above 10000 nM; under `O=CN(CCN1CCOCC1)Cc1ccc(OC[C@H]2CCCN2c2ncnc3[nH]cnc23)c2ccccc12` [A94, N-(2-Morpholin-4-ylethyl)-N-{4-[(R)-1-(9H-purin-6-yl)pyrrolidin-2-ylmethoxy]naphthalen-1-yl-methyl}formamide], 10 to 1000 nM; under `CCOC(=O)CCCCn1cnc2c(N3CCC[C@@H]3COc3cccc4ccc(O)cc34)ncnc21` [A136, Ethyl 5-{6-[(R)-2-(7-hydroxynaphthalen-1-yl-oxymethyl)pyrrolidin-1-yl]purin-9-yl}pentanoate], above 10000 nM. With `CCNC(=O)c1cc(OC[C@H]2CCCN2c2ncnc3[nH]cnc23)c2ccccc2n1` [A50, N-Ethyl-4-[(R)-1-(9H-purin-6-yl)pyrrolidin-2-yl-methoxy]quinoline-2-carboxamide formate], the IC50 lay within 10 to 1000 nM. As to `CC(=O)N(CCN1CCCCC1)Cc1ccc(OC[C@H]2CCCN2c2ncnc3[nH]cnc23)c2ccccc12` [A98, N-(2-Piperidin-1-ylethyl)-N-{4-[(R)-1-(9H-purin-6-yl)pyrrolidin-2-ylmethoxy]naphthalen-1-yl-methyl]acetamide], the 50% inhibitory concentration (IC50) was in the range of 10 to 1000 nM. Under `CCNC(=O)CC1CCc2c(OC[C@H]3CCCN3c3ncnc4[nH]cnc34)cccc2C1=O` (stereo partly drawn) [A176, N-Ethyl-2-{1-oxo-5-[(R)-1-(9H-purin-6-yl)-pyrrolidin-2-ylmethoxy]-1,2,3,4-tetrahydro-naphthalen-2-yl}acetamide] stands 10 to 1000 nM; under `O=C(NCCO)c1cc(OC[C@H]2CCCN2c2ncnc3[nH]cnc23)c2ccccc2n1` [A84, N-(2-Hydroxyethyl)-4-[(R)-1-(9H-purin-6-yl)-pyrrolidin-2-ylmethoxy]quinoline-2-carboxamide], 10 to 1000 nM. Under `O=c1c2ccccc2ccn1C[C@H]1CCCN1c1ncnc2[nH]cnc12` [A59, 2-[(R)-1-(9H-Purin-6-yl)pyrrolidin-2-ylmethyl]-2H-isoquinolin-1-one] stands above 10000 nM.

As for `CN(C)CCCNc1ncc(OC[C@H]2CCCN2c2ncnc3[nH]cnc23)c2ccccc12` [A182], the IC50 was 10 to 1000 nM. Regarding `CCOC(=O)/C=C/c1ccccc1OC[C@H]1CCCN1c1ncnc2[nH]cnc12` [A74, Ethyl (E)-3-{2-[(R)-1-(9H-purin-6-yl)pyrrolidin-2-ylmethoxy]phenyl}acrylate], the IC50 was in the range of 10 to 1000 nM.

For `c1ccc2c(OC[C@H]3CCCN3c3ncnc4[nH]cnc34)cncc2c1` [A148, 4-[(R)-1-(9H-Purin-6-yl)pyrrolidin-2-yl-methoxy]isoquinoline], the IC50 fell in the range of 10 to 1000 nM. To `Cn1c(C(=O)OCCc2ccc(F)cc2)c(OC[C@H]2CCCN2c2ncnc3[nH]cnc23)c2cc(F)ccc21` [A198, 2-(4-Fluorophenyl)ethyl 5-fluoro-1-methyl-3-[(R)-1-(9H-purin-6-yl)pyrrolidin-2-ylmethoxy]-1H-indole-2-carboxylate] belongs above 10000 nM; to `N[C@@H](Cc1c[nH]cn1)C(=O)Nc1ccc2cccc(OC[C@H]3CCCN3c3ncnc4[nH]cnc34)c2c1` [A164, (S)-2-Amino-3-(1H-imidazol-4-yl)-N-{8-[(R)-1-(9H-purin-6-yl)pyrrolidin-2-ylmethoxy]-naphthalen-2-yl}propionamide * HCl], 1000 to 10000 nM; to `O=C(/C=C/c1ccccc1OC[C@H]1CCCN1c1ncnc2[nH]cnc12)NCCCO` [A79, (E)-N-(3-Hydroxypropyl)-3-{2-[(R)-1-(9H-purin-6-yl)pyrrolidin-2-ylmethoxy]phenyl}acrylamide], 10 to 1000 nM. Under `c1ccc2c(OC[C@H]3CCCN3c3ncnc4[nH]cnc34)ccc(CNCCN3CCOCC3)c2c1` [A60, (2-Morpholin-4-ylethyl)-{4-[(R)-1-(9H-purin-6-yl)-pyrrolidin-2-ylmethoxy]naphthalen-1-yl-methyl}amine] stands 10 to 1000 nM; under `O=CN(CCN1CCCCC1)Cc1ccc(OC[C@H]2CCCN2c2ncnc3[nH]cnc23)c2ccccc12` [A101, N-(2-Piperidin-1-ylethyl)-N-{4-[(R)-1-(9H-purin-6-yl)pyrrolidin-2-ylmethoxy]naphthalen-1-yl-methyl}formamide], 10 to 1000 nM. To `CC(C)(C)OC(=O)N[C@@H](CCC(N)=O)C(=O)N1CCc2cccc(OC[C@H]3CCCN3c3ncnc4[nH]cnc34)c2C1` [A187, tert-Butyl ((S)-3-carbamoyl-1-{8-[(R)-1-(9H-purin-6-yl)pyrrolidin-2-ylmethoxy]-3,4-dihydro-1H-isoquinoline-2-carbonyl}propyl)carbamate] belongs 1000 to 10000 nM; to `O=C1OCCC1CCn1cnc2c(N3CCC[C@@H]3COc3cccc4ccc(O)cc34)ncnc21` (stereo partly drawn) [A134, 3-(2-{6-[(R)-2-(7-Hydroxynaphthalen-1-yl-oxymethyl)pyrrolidin-1-yl]purin-9-yl}ethyl)-dihydrofuran-2-one], 1000 to 10000 nM; to `c1ccc2c(OC[C@H]3CCCN3c3ncnc4[nH]cnc34)ccnc2c1` [A93, 4-[(R)-1-(9H-Purin-6-yl)pyrrolidin-2-yl-methoxy]quinoline], 10 to 1000 nM. With `c1ccc2c(OC[C@H]3CCCN3c3ncnc4[nH]cnc34)ccc(CN3CCN(C4CCCC4)CC3)c2c1` [A112, 6-{(R)-2-[4-(4-Cyclopentylpiperazin-1-yl-methyl)naphthalen-1-yloxymethyl]pyrrolidin-1-yl}-9H-purine], the IC50 lay in the range of 10 to 1000 nM.

Regarding `Cn1ccc(CN(C=O)Cc2ccc(OC[C@H]3CCCN3c3ncnc4[nH]cnc34)c3ccccc23)n1` [A102, N-(1-Methyl-1H-pyrazol-3-ylmethyl)-N-{4-[(R)-1-(9H-purin-6-yl)pyrrolidin-2-ylmethoxy]-naphthalen-1-ylmethyl}formamide], the IC50 was in the range of 10 to 1000 nM.

Turning to `O=C(NCC1CC(O)C1)c1cc(OC[C@H]2CCCN2c2ncnc3[nH]cnc23)c2ccccc2n1` (stereo partly drawn) [A88, N-(3-Hydroxycyclobutylmethyl)-4-[(R)-1-(9H-purin-6-yl)pyrrolidin-2-ylmethoxy]quinoline-2-carboxamide], the IC50 lay within 10 to 1000 nM.

Turning to `O[C@@H]1C[C@H](COc2cccc3ccccc23)N(c2ncnc3[nH]cnc23)C1` [A30, (3R,5R)-5-(Naphthalen-1-yloxymethyl)-1-(9H-purin-6-yl)pyrrolidin-3-ol], the IC50 is above 10000 nM. Under `CC(=O)N(CCN1CCOCC1)Cc1ccc(OC[C@H]2CCCN2c2ncnc3[nH]cnc23)c2ccccc12` [A92, N-(2-Morpholin-4-ylethyl)-N-{4-[(R)-1-(9H-purin-6-yl)pyrrolidin-2-ylmethoxy]naphthalen-1-yl-methyl}acetamide] stands 10 to 1000 nM; under `CN(C)CCNc1ncc(OC[C@H]2CCCN2c2ncnc3[nH]cnc23)c2ccccc12` [A181, N,N-Dimethyl-N′-{4-[(R)-1-(9H-purin-6-yl)-pyrrolidin-2-ylmethoxy]isoquinolin-1-yl}ethane-1,2-diamine], 10 to 1000 nM; under `CNC(=O)c1cc(OC[C@H]2CCCN2c2ncnc3[nH]cnc23)c2ccccc2n1` [A48, N-Methyl-4-[(R)-1-(9H-purin-6-yl)pyrrolidin-2-yl-methoxy]quinoline-2-carboxamide formate], 10 to 1000 nM. To `Fc1ccc(-c2ncc(OC[C@H]3CCCN3c3ncnc4[nH]cnc34)cn2)cc1` [A77, 6-{(R)-2-[2-(4-Fluorophenyl)pyrimidin-5-yl-oxymethyl]pyrrolidin-1-yl}-9H-purine] belongs 1000 to 10000 nM; to `NCCCCCC(=O)N1CCc2cccc(OC[C@H]3CCCN3c3ncnc4[nH]cnc34)c2C1` [A138, 6-Amino-1-{8-[(R)-1-(9H-purin-6-yl)pyrrolidin-2-ylmethoxy]-3,4-dihydro-1H-isoquinolin-2-yl}-hexan-1-one], 10 to 1000 nM.
